Test results as given in ChEMBL document CHEMBL4507288 (2021).

What was measured:
[1] = molecular target: Sigma intracellular receptor 2 (Homo sapiens, UniProt Q5BJF2); assay: GPCRScan assay: inhibition of Sigma 2; set-up: radioligand conc. used [nm] 5.0, parental cells HEKT
Rattus norvegicus = organism: Rattus norvegicus; details: Compound concentration 10.0 uM
[2] = molecular target: Dual serine/threonine and tyrosine protein kinase (Homo sapiens) (UniProt Q6XUX3); details: Compound concentration 1000.0 nM
[3] = molecular target: Serine/threonine-protein kinase haspin (Homo sapiens) (UniProt Q8TF76); details: Compound concentration 1000.0 nM
[4] = molecular target: Cyclin-dependent kinase 4 (Homo sapiens) (UniProt P11802); details: Compound concentration 1000.0 nM
[5] = molecular target: Tyrosine-protein kinase Fes/Fps (Homo sapiens) (UniProt P07332); details: Compound concentration 1000.0 nM
[6] = tested on: Receptor-type tyrosine-protein kinase FLT3 (Homo sapiens), P36888 [R834Q]; details: Compound concentration 1000.0 nM
[7] = molecular target: Mitogen-activated protein kinase 11 (Homo sapiens) (UniProt Q15759); details: Compound concentration 1000.0 nM
[8] = molecular target: Dual specificity mitogen-activated protein kinase kinase 1 (Homo sapiens) (UniProt Q02750); details: Compound concentration 1000.0 nM
[9] = molecular target: Calcium/calmodulin-dependent protein kinase type 1D (Homo sapiens) (UniProt Q8IU85); details: Compound concentration 1000.0 nM
[10] = tested on: Mast/stem cell growth factor receptor Kit (Homo sapiens), P10721 [L576P]; details: Compound concentration 1000.0 nM
[11] = molecular target: Serine/threonine-protein kinase TAO3 (Homo sapiens) (UniProt Q9H2K8); details: Compound concentration 1000.0 nM
[12] = molecular target: Beta-2 adrenergic receptor (Homo sapiens) (UniProt P07550); details: Compound concentration 10.0 uM
[13] = molecular target: Receptor-interacting serine/threonine-protein kinase 2 (Homo sapiens) (UniProt O43353); details: Compound concentration 1000.0 nM
[14] = molecular target: Cyclin-dependent kinase 16 (Homo sapiens) (UniProt Q00536); details: Compound concentration 1000.0 nM
[15] = molecular target: Homeodomain-interacting protein kinase 3 (Homo sapiens) (UniProt Q9H422); details: Compound concentration 1000.0 nM
[16] = tested on: Receptor-type tyrosine-protein kinase FLT3 (Homo sapiens), P36888 [D835H]; details: Compound concentration 1000.0 nM
[17] = tested on: Tyrosine-protein kinase ABL1 (Homo sapiens), P00519 [T315I]; details: Compound concentration 1000.0 nM
[18] = molecular target: Serine/threonine-protein kinase MRCK gamma (Homo sapiens) (UniProt Q6DT37); details: Compound concentration 1000.0 nM
[19] = molecular target: Leukocyte tyrosine kinase receptor (Homo sapiens) (UniProt P29376); details: Compound concentration 1000.0 nM
[20] = molecular target: Mitogen-activated protein kinase kinase kinase 6 (Homo sapiens) (UniProt O95382); details: Compound concentration 1000.0 nM
[21] = molecular target: Cytoplasmic tyrosine-protein kinase BMX (Homo sapiens) (UniProt P51813); details: Compound concentration 1000.0 nM
[22] = molecular target: Ephrin type-A receptor 2 (Homo sapiens) (UniProt P29317); details: Compound concentration 1000.0 nM
[23] = molecular target: RAC-beta serine/threonine-protein kinase (Homo sapiens) (UniProt P31751); details: Compound concentration 1000.0 nM
[24] = molecular target: Serine/threonine-protein kinase 17B (Homo sapiens) (UniProt O94768); details: Compound concentration 1000.0 nM
[25] = molecular target: Serine/threonine-protein kinase pim-3 (Homo sapiens) (UniProt Q86V86); details: Compound concentration 1000.0 nM
[26] = molecular target: Tyrosine-protein kinase ABL2 (Homo sapiens) (UniProt P42684); details: Compound concentration 1000.0 nM
[27] = molecular target: Dual specificity protein kinase CLK1 (Homo sapiens) (UniProt P49759); details: Compound concentration 1000.0 nM
[28] = molecular target: Mitogen-activated protein kinase kinase kinase kinase 5 (Homo sapiens) (UniProt Q9Y4K4); details: Compound concentration 1000.0 nM
[29] = molecular target: Cyclin-G-associated kinase (Homo sapiens) (UniProt O14976); details: Compound concentration 1000.0 nM
[30] = molecular target: Rhodopsin kinase GRK7 (Homo sapiens) (UniProt Q8WTQ7); details: Compound concentration 1000.0 nM
[31] = molecular target: Interleukin-1 receptor-associated kinase 3 (Homo sapiens) (UniProt Q9Y616); details: Compound concentration 1000.0 nM
[32] = molecular target: Mitogen-activated protein kinase 13 (Homo sapiens) (UniProt O15264); details: Compound concentration 1000.0 nM
[33] = molecular target: Tyrosine-protein kinase Fer (Homo sapiens) (UniProt P16591); details: Compound concentration 1000.0 nM
[34] = molecular target: Ribosomal protein S6 kinase beta-1 (Homo sapiens) (UniProt P23443); details: Compound concentration 1000.0 nM
[35] = molecular target: Tyrosine-protein kinase receptor UFO (Homo sapiens) (UniProt P30530); details: Compound concentration 1000.0 nM
[36] = molecular target: Phosphatidylinositol 4-phosphate 5-kinase type-1 gamma (Homo sapiens) (UniProt O60331); details: Compound concentration 1000.0 nM
[37] = molecular target: Serine/threonine-protein kinase LATS2 (Homo sapiens) (UniProt Q9NRM7); details: Compound concentration 1000.0 nM
[38] = molecular target: Serine/threonine-protein kinase DCLK3 (Homo sapiens) (UniProt Q9C098); details: Compound concentration 1000.0 nM
[39] = molecular target: Casein kinase I isoform gamma-3 (Homo sapiens) (UniProt Q9Y6M4); details: Compound concentration 1000.0 nM
[40] = molecular target: Ephrin type-A receptor 6 (Homo sapiens) (UniProt Q9UF33); details: Compound concentration 1000.0 nM
[41] = molecular target: Mitogen-activated protein kinase 9 (Homo sapiens) (UniProt P45984); details: Compound concentration 1000.0 nM
[42] = molecular target: SRSF protein kinase 3 (Homo sapiens) (UniProt Q9UPE1); details: Compound concentration 1000.0 nM
[43] = tested on: Epidermal growth factor receptor (Homo sapiens), P00533 [UNDEFINED MUTATION]; details: Compound concentration 1000.0 nM
[44] = molecular target: Serine/threonine-protein kinase PLK4 (Homo sapiens) (UniProt O00444); details: Compound concentration 1000.0 nM
[45] = molecular target: Tyrosine-protein kinase Srms (Homo sapiens) (UniProt Q9H3Y6); details: Compound concentration 1000.0 nM
Chain of Tyrosine-protein kinase Srms (Homo sapiens) (Q9H3Y6 whole entry): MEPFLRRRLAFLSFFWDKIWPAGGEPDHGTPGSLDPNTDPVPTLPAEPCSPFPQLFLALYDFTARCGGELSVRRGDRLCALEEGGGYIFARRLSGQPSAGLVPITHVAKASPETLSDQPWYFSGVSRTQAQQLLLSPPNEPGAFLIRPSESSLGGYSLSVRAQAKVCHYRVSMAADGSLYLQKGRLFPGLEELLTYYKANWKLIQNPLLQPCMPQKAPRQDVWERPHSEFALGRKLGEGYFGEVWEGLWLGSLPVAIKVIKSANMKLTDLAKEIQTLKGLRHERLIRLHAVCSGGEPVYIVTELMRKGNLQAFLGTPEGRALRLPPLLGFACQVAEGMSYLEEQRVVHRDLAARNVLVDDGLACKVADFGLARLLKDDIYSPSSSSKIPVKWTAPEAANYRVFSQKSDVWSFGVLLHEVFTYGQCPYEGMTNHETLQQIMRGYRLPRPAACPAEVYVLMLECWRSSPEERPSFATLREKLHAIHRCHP

Chain of Tyrosine-protein kinase Fer (Homo sapiens) (P16591 whole entry, looked up): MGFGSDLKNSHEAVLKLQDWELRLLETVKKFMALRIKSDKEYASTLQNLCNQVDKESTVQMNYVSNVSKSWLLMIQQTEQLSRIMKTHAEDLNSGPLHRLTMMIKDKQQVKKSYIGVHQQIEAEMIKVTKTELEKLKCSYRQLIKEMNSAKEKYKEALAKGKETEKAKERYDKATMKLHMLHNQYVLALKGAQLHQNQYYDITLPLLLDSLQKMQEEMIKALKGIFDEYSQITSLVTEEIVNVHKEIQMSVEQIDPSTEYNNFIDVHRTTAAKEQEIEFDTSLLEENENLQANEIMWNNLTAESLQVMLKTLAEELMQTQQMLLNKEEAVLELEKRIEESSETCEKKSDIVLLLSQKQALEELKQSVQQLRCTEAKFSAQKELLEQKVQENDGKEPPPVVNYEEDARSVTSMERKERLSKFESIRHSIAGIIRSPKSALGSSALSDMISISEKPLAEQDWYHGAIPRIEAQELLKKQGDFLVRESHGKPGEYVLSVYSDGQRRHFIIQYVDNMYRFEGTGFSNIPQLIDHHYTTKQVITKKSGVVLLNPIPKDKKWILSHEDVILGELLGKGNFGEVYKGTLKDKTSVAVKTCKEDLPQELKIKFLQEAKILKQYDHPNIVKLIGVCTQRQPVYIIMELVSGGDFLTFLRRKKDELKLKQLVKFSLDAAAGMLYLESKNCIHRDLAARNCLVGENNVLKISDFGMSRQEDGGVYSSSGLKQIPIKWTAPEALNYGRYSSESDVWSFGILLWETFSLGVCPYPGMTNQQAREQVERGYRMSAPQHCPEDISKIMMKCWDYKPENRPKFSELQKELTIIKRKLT
Chain of Serine/threonine-protein kinase DCLK3 (Homo sapiens) (Q9C098 whole entry, canonical isoform): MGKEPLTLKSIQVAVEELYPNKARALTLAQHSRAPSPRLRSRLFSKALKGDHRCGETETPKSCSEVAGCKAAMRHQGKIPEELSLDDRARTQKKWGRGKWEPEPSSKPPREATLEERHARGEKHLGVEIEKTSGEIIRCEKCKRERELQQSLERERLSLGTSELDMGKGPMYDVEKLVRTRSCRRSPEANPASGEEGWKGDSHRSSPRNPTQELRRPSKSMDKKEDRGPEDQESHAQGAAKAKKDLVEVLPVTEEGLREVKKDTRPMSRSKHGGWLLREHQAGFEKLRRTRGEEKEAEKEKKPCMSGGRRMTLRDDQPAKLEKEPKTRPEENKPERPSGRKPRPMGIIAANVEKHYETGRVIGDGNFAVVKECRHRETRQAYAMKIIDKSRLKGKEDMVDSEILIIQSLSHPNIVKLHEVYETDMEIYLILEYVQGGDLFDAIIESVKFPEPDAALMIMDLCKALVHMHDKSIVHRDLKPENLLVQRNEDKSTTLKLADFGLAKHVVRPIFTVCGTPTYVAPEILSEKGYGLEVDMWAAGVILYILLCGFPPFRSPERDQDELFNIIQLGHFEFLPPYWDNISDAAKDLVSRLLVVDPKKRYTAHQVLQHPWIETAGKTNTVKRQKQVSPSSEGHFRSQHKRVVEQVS
Chain of Epidermal growth factor receptor (Homo sapiens), P00533 [UNDEFINED MUTATION] (P00533 whole entry, looked up, change not shown): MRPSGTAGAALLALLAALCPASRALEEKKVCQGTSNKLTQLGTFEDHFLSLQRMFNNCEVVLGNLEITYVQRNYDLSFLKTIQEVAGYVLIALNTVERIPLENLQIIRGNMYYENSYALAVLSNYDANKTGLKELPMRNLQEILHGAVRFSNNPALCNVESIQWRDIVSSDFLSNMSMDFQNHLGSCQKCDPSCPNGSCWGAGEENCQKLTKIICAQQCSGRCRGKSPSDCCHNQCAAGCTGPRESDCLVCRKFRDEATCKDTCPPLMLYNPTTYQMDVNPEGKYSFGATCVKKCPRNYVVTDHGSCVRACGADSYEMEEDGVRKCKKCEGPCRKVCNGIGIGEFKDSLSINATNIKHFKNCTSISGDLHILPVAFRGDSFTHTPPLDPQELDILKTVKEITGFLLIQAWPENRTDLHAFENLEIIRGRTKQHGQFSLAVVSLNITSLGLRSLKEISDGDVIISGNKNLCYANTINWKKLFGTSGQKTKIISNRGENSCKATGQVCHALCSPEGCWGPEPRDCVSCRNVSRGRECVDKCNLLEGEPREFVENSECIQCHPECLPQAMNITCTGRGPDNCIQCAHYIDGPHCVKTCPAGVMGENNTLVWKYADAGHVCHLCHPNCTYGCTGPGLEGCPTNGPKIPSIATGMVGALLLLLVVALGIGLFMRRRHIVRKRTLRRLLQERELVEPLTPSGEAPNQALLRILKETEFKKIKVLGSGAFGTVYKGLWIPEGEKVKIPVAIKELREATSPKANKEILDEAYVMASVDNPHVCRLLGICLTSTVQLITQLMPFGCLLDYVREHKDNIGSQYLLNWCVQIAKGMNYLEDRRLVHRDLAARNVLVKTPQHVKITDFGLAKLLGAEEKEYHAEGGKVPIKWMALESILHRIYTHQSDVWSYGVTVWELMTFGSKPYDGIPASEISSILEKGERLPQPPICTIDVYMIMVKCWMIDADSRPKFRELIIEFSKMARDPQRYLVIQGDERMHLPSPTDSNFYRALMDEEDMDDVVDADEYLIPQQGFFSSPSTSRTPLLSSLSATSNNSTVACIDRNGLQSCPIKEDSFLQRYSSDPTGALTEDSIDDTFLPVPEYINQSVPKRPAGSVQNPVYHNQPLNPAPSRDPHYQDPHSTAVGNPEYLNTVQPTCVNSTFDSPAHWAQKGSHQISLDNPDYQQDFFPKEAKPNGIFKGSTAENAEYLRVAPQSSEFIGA
Chain of Calcium/calmodulin-dependent protein kinase type 1D (Homo sapiens) (Q8IU85 whole entry, looked up): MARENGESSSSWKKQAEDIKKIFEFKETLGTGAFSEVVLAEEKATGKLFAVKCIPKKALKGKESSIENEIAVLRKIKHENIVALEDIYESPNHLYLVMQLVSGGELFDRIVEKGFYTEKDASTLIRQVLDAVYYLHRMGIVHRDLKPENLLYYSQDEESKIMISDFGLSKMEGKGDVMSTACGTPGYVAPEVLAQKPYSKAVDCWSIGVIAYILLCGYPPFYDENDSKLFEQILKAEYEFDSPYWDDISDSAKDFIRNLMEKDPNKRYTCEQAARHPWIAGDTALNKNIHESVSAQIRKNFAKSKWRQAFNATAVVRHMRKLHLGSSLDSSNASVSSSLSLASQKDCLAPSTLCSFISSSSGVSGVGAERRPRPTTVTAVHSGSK
Chain of Interleukin-1 receptor-associated kinase 3 (Homo sapiens) (Q9Y616 whole entry): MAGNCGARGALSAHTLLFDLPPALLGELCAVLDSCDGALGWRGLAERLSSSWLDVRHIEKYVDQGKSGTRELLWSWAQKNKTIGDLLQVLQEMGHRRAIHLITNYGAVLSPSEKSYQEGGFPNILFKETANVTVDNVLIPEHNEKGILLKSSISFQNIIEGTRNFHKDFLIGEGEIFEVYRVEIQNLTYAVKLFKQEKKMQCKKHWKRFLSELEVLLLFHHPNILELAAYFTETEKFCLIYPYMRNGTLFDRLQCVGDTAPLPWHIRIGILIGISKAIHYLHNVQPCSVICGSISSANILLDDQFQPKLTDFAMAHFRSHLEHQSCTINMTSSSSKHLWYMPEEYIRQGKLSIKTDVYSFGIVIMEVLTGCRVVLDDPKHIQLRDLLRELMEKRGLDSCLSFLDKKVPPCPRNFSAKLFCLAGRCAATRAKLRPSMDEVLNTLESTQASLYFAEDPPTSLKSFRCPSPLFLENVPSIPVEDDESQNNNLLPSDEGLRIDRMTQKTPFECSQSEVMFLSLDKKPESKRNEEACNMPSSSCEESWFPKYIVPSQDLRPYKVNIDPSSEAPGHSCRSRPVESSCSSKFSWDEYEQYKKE
Chain of SRSF protein kinase 3 (Homo sapiens) (Q9UPE1 whole entry): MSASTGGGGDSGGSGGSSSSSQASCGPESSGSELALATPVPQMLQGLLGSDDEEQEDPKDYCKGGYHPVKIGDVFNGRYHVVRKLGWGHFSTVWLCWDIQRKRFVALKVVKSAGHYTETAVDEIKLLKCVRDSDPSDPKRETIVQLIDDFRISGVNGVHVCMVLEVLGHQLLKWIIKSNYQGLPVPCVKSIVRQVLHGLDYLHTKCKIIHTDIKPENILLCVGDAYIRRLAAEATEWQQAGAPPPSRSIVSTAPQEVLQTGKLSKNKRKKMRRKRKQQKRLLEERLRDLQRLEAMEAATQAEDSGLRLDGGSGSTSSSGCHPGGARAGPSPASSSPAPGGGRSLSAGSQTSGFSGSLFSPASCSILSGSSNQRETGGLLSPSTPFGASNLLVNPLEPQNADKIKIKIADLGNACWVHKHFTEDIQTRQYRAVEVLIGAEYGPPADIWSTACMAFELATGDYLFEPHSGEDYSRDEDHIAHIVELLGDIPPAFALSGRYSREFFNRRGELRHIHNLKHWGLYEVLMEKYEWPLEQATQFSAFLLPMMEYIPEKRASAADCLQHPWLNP

## CC(C)(C)OC(=O)N1CCCC1CNC1CCC(c2cc(F)ccc2F)(S(=O)(=O)c2ccc(Cl)cc2)CC1 (stereo unspecified) [GSI-NC]
[1]
  Ki: 959 nM

## O=S(=O)(NC1CCC(c2cc(F)ccc2F)(S(=O)(=O)c2ccc(Cl)cc2)CC1)C(F)(F)F (stereo unspecified) [MRK-560]
Rattus norvegicus
  inhibition: 37.2%
[2]
  residual activity: 100%
[3]
  residual activity: 69%
[4]
  residual activity: 81%
[5]
  residual activity: 88%
[6]
  residual activity: 100%
[7]
  residual activity: 94%
[8]
  residual activity: 100%
[9]
  residual activity: 79%
[10]
  residual activity: 100%
[11]
  residual activity: 100%
[12]
  inhibition: 9.91%
[13]
  residual activity: 84%
[14]
  residual activity: 68%
[15]
  residual activity: 100%
[16]
  residual activity: 90%
[17]
  residual activity: 90%
[18]
  residual activity: 100%
[19]
  residual activity: 100%
[20]
  residual activity: 82%
[21]
  residual activity: 93%
[22]
  residual activity: 84%
[23]
  residual activity: 99%
[24]
  residual activity: 97%
[25]
  residual activity: 100%
[26]
  residual activity: 100%
[27]
  residual activity: 78%
[28]
  residual activity: 69%
[29]
  residual activity: 89%
[30]
  residual activity: 100%
[31]
  residual activity: 98%
[32]
  residual activity: 100%
[33]
  residual activity: 100%
[34]
  residual activity: 100%
[35]
  residual activity: 100%
[36]
  residual activity: 87%
[37]
  residual activity: 0%
[38]
  residual activity: 100%
[39]
  residual activity: 83%
[40]
  residual activity: 100%
[41]
  residual activity: 73%
[42]
  residual activity: 100%
[43]
  residual activity: 80%
[44]
  residual activity: 100%
[45]
  residual activity: 100%
